ChEMBL document CHEMBL1944563, “Separation of Betti Reaction Product Enantiomers: Absolute Configuration and Inhibition of Botulinum Neurotoxin A” (ACS Med Chem Lett, 2011)

Tests used:
[1] = biological target: Botulinum neurotoxin type A (Clostridium botulinum (strain Hall / ATCC 3502 / NCTC 13319 / Type A)) (UniProt P0DPI1); assay: Inhibition of Clostridium botulinum Hall BoNT/A-induced paralysis in mouse phrenic nerve hemidiaphragm assessed as time required for loss of 50% twitch tension at 2 uM; conditions: Clostridium botulinum A str. Hall
Sequence of Botulinum neurotoxin type A (Clostridium botulinum (strain Hall / ATCC 3502 / NCTC 13319 / Type A)) (P0DPI1 2-448 limits assumed): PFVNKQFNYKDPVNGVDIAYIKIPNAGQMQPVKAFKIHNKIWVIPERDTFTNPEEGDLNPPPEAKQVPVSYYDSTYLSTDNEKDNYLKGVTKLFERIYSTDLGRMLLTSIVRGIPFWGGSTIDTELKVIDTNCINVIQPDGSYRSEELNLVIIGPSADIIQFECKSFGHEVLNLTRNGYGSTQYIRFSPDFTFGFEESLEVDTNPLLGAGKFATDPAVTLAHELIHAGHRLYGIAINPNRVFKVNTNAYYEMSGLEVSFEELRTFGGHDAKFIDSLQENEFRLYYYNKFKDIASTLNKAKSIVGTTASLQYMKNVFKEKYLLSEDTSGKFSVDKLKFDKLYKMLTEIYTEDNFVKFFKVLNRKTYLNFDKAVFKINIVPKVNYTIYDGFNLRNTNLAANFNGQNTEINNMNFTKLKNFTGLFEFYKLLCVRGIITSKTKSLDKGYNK

[2] = biological target: Botulinum neurotoxin type A (Clostridium botulinum (strain Hall / ATCC 3502 / NCTC 13319 / Type A), UniProt P0DPI1); assay: Inhibition of Clostridium botulinum Hall BoNT/A light chain using SNAP-25 (187 to 203) as substrate by HPLC analysis; parameters: species or system Clostridium botulinum A str. Hall
Sequence of Botulinum neurotoxin type A (P0DPI1 2-448 limits assumed): as above

[3] = biological target: Botulinum neurotoxin type A (Clostridium botulinum (strain Hall / ATCC 3502 / NCTC 13319 / Type A)) (UniProt P0DPI1); assay: Inhibition of Clostridium botulinum Hall BoNT/A light chain using SNAP-25 (187 to 203) as substrate at 20 uM by HPLC analysis; conditions: Clostridium botulinum A str. Hall
[4] = biological target: Botulinum neurotoxin type A (Clostridium botulinum (strain Hall / ATCC 3502 / NCTC 13319 / Type A)) (UniProt P0DPI1); assay: Inhibition of Clostridium botulinum Hall BoNT/A-induced toxicity in mouse Neuro2a cells assessed as inhibition of SNAP25 substrate cleavage at 30 uM by Western blotting; assay type: cell-based; conditions: Clostridium botulinum A str. Hall
[5] = biological target: Botulinum neurotoxin type A (Clostridium botulinum (strain Hall / ATCC 3502 / NCTC 13319 / Type A)) (UniProt P0DPI1); assay: Inhibition of Clostridium botulinum Hall BoNT/A light chain using SNAP-25 (187 to 203) as substrate at 5 uM by HPLC analysis; conditions: Clostridium botulinum A str. Hall
[6] = biological target: Botulinum neurotoxin type A (Clostridium botulinum (strain Hall / ATCC 3502 / NCTC 13319 / Type A)) (UniProt P0DPI1); assay: Inhibition of Clostridium botulinum Hall BoNT/A-induced toxicity in mouse Neuro2a cells assessed as inhibition of SNAP25 substrate cleavage at 60 uM by Western blotting; assay type: cell-based; conditions: Clostridium botulinum A str. Hall
[7] = biological target: Botulinum neurotoxin type A (Clostridium botulinum (strain Hall / ATCC 3502 / NCTC 13319 / Type A)) (UniProt P0DPI1); assay: Inhibition of Clostridium botulinum Hall BoNT/A-induced paralysis in mouse phrenic nerve hemidiaphragm assessed as delay in paralytic half-time at 2 uM relative to control; conditions: Clostridium botulinum A str. Hall
[8] = biological target: Botulinum neurotoxin type A (Clostridium botulinum (strain Hall / ATCC 3502 / NCTC 13319 / Type A)) (UniProt P0DPI1); assay: Inhibition of Clostridium botulinum Hall BoNT/A-induced toxicity in mouse Neuro2a cells assessed as inhibition of SNAP25 substrate cleavage at 15 uM by Western blotting; assay type: cell-based; conditions: Clostridium botulinum A str. Hall
[9] = biological target: Botulinum neurotoxin type A (Clostridium botulinum (strain Hall / ATCC 3502 / NCTC 13319 / Type A)) (UniProt P0DPI1); assay: Inhibition of Clostridium botulinum Hall BoNT/A-induced toxicity in mouse Neuro2a cells assessed as inhibition of SNAP25 substrate cleavage at 45 uM by Western blotting; assay type: cell-based; conditions: Clostridium botulinum A str. Hall

Row | SMILES | TIME [1] [h] | IC50 [2] [nM] | inhibition [3] [%] | inhibition [4] [%] | inhibition [5] [%] | inhibition [6] [%] | fold change (FC) [7] | inhibition [8] [%] | inhibition [9] [%]
1 | Oc1c([C@H](Nc2ccccn2)c2ccccc2)cc(Cl)c2cccnc12 | 3.18 | 1100 | 94 | 89 | 90 | 96 | 3 | 56 | 94
2 | Oc1c([C@@H](Nc2ccccn2)c2ccccc2)cc(Cl)c2cccnc12 | 3.13 | 1000 | 91 | 69 | 90 | 96 | 3 | 54 | 93
3 | Oc1c(C(Nc2ccccn2)c2ccccc2)cc(Cl)c2cccnc12 (racemic) |  | 1500 | 92 | 74 | 88 | 91 |  | 41 | 90
